Experiments:
[1] = system: S. pneumoniae D39V; assay: Bliss interaction score (quartile over a dose matrix) (fitness difference); higher = more antagonism (negative = synergy)
Summary of the method: (§1)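 Fitness here means normalised growth, inferred for single drugs from the combination data. Growth was OD595 at entry into stationary phase, divided by the plate's robust no-drug mean and capped at 1. The Bliss score is observed minus expected fitness, with the expectation being the product, and its quartiles span technical, biological and donor/recipient replicates.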

[2] = system: S. aureus DSM 20231; assay: as above
Summary of the method: as §1

[3] = system: B. subtilis 168; assay: as above
Summary of the method: as §1

[4] = system: S. aureus Newman; assay: as above
Summary of the method: as §1

[5] = system: S. pneumoniae D39V; assay: fitness (endpoint OD595 vs no drug) (fraction); higher = more growth
Summary of the method: (§2)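 At 37 °C, bacteria in TSB, LB Lennox or CY were grown in 384-well plates from a starting OD595 of 0.01. OD595 was measured every 30 min for 14 h, with the first reading used as background. Fitness is the optical density at the switch to stationary phase as a fraction of the robust mean of no-drug control wells, capped at 1.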

[6] = system: S. aureus DSM 20231; assay: as above
Summary of the method: as §2

[7] = system: B. subtilis 168; assay: as above
Summary of the method: as §2

[8] = system: S. aureus Newman; assay: as above
Summary of the method: as §2
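Throughout, for Bliss interaction score (quartile over a dose matrix): first quartile when negative (synergy) and third quartile when positive (antagonism).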
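Throughout, for fitness (endpoint OD595 vs no drug): OD595 on entry to stationary phase over no-drug wells; at most 1.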

COc1cccc2c1C(=O)c1c(O)c3c(c(O)c1C2=O)C[C@@](O)(C(=O)CO)C[C@@H]3O[C@H]1C[C@H](N)[C@H](O)[C@H](C)O1 [Doxorubicin] + CC(=O)NC[C@H]1CN(c2ccc(N3CCOCC3)c(F)c2)C(=O)O1 [Linezolid]
Conditions | Bliss interaction score
[1] | -0.113
[2] | -0.0425
[3] | -0.0705
[4] | 0.0954

fitness
Conditions | first compound 0.25 µg/mL | first compound 0.5 µg/mL | first compound 0.625 µg/mL | first compound 1 µg/mL | first compound 1.25 µg/mL | first compound 2.5 µg/mL
[5], partner 0.105 µg/mL | 0.755 | 0.756 | – | 0.746 | – | –
[5], partner 0.2 µg/mL | 0.49 | 0.487 | – | 0.412 | – | –
[5], partner 0.21 µg/mL | 0.633 | 0.66 | – | 0.674 | – | –
[5], partner 0.4 µg/mL | 0.351 | 0.331 | – | 0.302 | – | –
[5], partner 0.42 µg/mL | 0.472 | 0.432 | – | 0.377 | – | –
[5], partner 0.8 µg/mL | 0.155 | 0.153 | – | 0.141 | – | –
[6], partner 0.125 µg/mL | – | – | 0.762 | – | 0.814 | 0.716
[6], partner 0.25 µg/mL | – | – | 0.617 | – | 0.603 | 0.514
[6], partner 0.5 µg/mL | – | – | 0.223 | – | 0.204 | 0.16
[7], partner 0.125 µg/mL | – | – | 0.556 | – | 0.489 | 0.311
[7], partner 0.25 µg/mL | – | – | 0.0946 | – | 0.078 | 0.0654
[7], partner 0.5 µg/mL | – | – | 0.0377 | – | 0.0497 | 0.0425

fitness, one replicate
Conditions | first compound 0.625 µg/mL | first compound 1.25 µg/mL | first compound 2.5 µg/mL
[6], partner 1 µg/mL | 0.0276 | 0.0358 | 0.0376
[7], partner 0.0625 µg/mL | 0.956 | 0.901 | 0.574

COc1cccc2c1C(=O)c1c(O)c3c(c(O)c1C2=O)C[C@@](O)(C(=O)CO)C[C@@H]3O[C@H]1C[C@H](N)[C@H](O)[C@H](C)O1 [Doxorubicin] + COc1cc(Cc2cnc(N)nc2N)cc(OC)c1OC [Trimethoprim]
Conditions | Bliss interaction score
[1] | -0.179
[2] | -0.0539
[3] | -0.0392
[4] | 0.0879

fitness
Conditions | partner 0.125 µg/mL | partner 0.25 µg/mL | partner 0.5 µg/mL | partner 1 µg/mL
[6], first compound 0.625 µg/mL | 0.683 | 0.557 | 0.175 | 0.0314
[6], first compound 1.25 µg/mL | 0.742 | 0.56 | 0.0868 | 0.0177
[6], first compound 2.5 µg/mL | 0.728 | 0.523 | 0.0302 | 0.0244
[7], first compound 0.625 µg/mL | 0.628 | 0.489 | 0.435 | –
[7], first compound 1.25 µg/mL | 0.582 | – | 0.421 | –
[7], first compound 2.5 µg/mL | 0.469 | 0.393 | 0.37 | –

fitness, [7], one replicate
Conditions | partner 0.1 µg/mL | partner 0.2 µg/mL | partner 0.4 µg/mL | partner 1 µg/mL | partner 2 µg/mL
first compound 0.625 µg/mL | 0.868 | 0.699 | 0.524 | 0.278 | 0.222
first compound 1.25 µg/mL | 0.849 | 0.646 | 0.504 | 0.228 | 0.152
first compound 2.5 µg/mL | 0.799 | 0.559 | 0.391 | 0.126 | 0.0762

C[C@@H]1O[C@@H]1P(=O)(O)O [Fosfomycin] + CC(C1CCC(C(O1)OC2C(CC(C(C2O)OC3C(C(C(CO3)(C)O)NC)O)N)N)N)NC [Gentamicin]
main component drawn
Conditions | Bliss interaction score
[1] | -0.0335
[2] | -0.0757
[3] | 0.152
[4] | 0.152

main component drawn
Conditions | fitness
[5], first compound 1.25 µg/mL, partner 2 µg/mL | 0.96
[5], first compound 1.25 µg/mL, partner 4 µg/mL | 0.944
[5], first compound 1.25 µg/mL, partner 8 µg/mL | 0.948
[5], first compound 2.5 µg/mL, partner 2 µg/mL | 0.941
[5], first compound 2.5 µg/mL, partner 4 µg/mL | 0.896
[5], first compound 2.5 µg/mL, partner 8 µg/mL | 0.876
[5], first compound 5 µg/mL, partner 2 µg/mL | 0.715
[5], first compound 5 µg/mL, partner 4 µg/mL | 0.674
[5], first compound 5 µg/mL, partner 8 µg/mL | 0.72
[7], first compound 1.562 µg/mL, partner 0.0625 µg/mL | 0.757
[7], first compound 3.124 µg/mL, partner 0.0625 µg/mL | 0.629
[8], first compound 0.781 µg/mL, partner 0.5 µg/mL | 0.705
[8], first compound 0.781 µg/mL, partner 1 µg/mL | 0.802
[8], first compound 0.781 µg/mL, partner 2 µg/mL | 0.796
[8], first compound 1.562 µg/mL, partner 0.5 µg/mL | 0.585
[8], first compound 1.562 µg/mL, partner 1 µg/mL | 0.65
[8], first compound 1.562 µg/mL, partner 2 µg/mL | 0.666
[8], first compound 3.124 µg/mL, partner 0.5 µg/mL | 0.422
[8], first compound 3.124 µg/mL, partner 1 µg/mL | 0.455
[8], first compound 3.124 µg/mL, partner 2 µg/mL | 0.464

fitness, [8], one replicate, main component drawn
Conditions | first compound 0.781 µg/mL | first compound 1.562 µg/mL | first compound 3.124 µg/mL
partner 0.375 µg/mL | 0.589 | 0.554 | 0.236
partner 0.75 µg/mL | 0.596 | 0.571 | 0.232
partner 1.5 µg/mL | 0.537 | 0.447 | 0.119

C[C@@H]1O[C@@H]1P(=O)(O)O [Fosfomycin] + CN(C)c1cc(NC(=O)CNC(C)(C)C)c(O)c2c1C[C@H]1C[C@H]3[C@H](N(C)C)C(O)=C(C(N)=O)C(=O)[C@@]3(O)C(O)=C1C2=O [Tigecycline]
Conditions | Bliss interaction score
[1] | 0.0555
[2] | 0.044
[3] | -0.0396
[4] | -0.0631

Conditions | fitness
[5], first compound 1.25 µg/mL, partner 0.325 µg/mL | 0.929
[5], first compound 1.25 µg/mL, partner 0.65 µg/mL | 0.921
[5], first compound 1.25 µg/mL, partner 1.3 µg/mL | 0.942
[5], first compound 1.25 µg/mL, partner 2.6 µg/mL | 0.921
[5], first compound 2.5 µg/mL, partner 0.325 µg/mL | 0.953
[5], first compound 2.5 µg/mL, partner 0.65 µg/mL | 0.912
[5], first compound 2.5 µg/mL, partner 1.3 µg/mL | 0.92
[5], first compound 2.5 µg/mL, partner 2.6 µg/mL | 0.86
[5], first compound 5 µg/mL, partner 0.325 µg/mL | 0.796
[5], first compound 5 µg/mL, partner 0.65 µg/mL | 0.748
[5], first compound 5 µg/mL, partner 1.3 µg/mL | 0.791
[5], first compound 5 µg/mL, partner 2.6 µg/mL | 0.809
[7], first compound 1.562 µg/mL, partner 0.039 µg/mL | 0.76
[7], first compound 1.562 µg/mL, partner 0.078 µg/mL | 0.746
[7], first compound 1.562 µg/mL, partner 0.156 µg/mL | 0.713
[7], first compound 3.124 µg/mL, partner 0.039 µg/mL | 0.655
[7], first compound 3.124 µg/mL, partner 0.078 µg/mL | 0.598
[7], first compound 3.124 µg/mL, partner 0.156 µg/mL | 0.595
[7], first compound 6.248 µg/mL, partner 0.039 µg/mL | 0.52
[7], first compound 6.248 µg/mL, partner 0.078 µg/mL | 0.488
[7], first compound 6.248 µg/mL, partner 0.156 µg/mL | 0.492
[8], first compound 0.781 µg/mL, partner 0.039 µg/mL | 0.558
[8], first compound 0.781 µg/mL, partner 0.078 µg/mL | 0.57
[8], first compound 0.781 µg/mL, partner 0.156 µg/mL | 0.593
[8], first compound 1.562 µg/mL, partner 0.039 µg/mL | 0.47
[8], first compound 1.562 µg/mL, partner 0.078 µg/mL | 0.504
[8], first compound 1.562 µg/mL, partner 0.156 µg/mL | 0.518
[8], first compound 3.124 µg/mL, partner 0.039 µg/mL | 0.177
[8], first compound 3.124 µg/mL, partner 0.078 µg/mL | 0.188
[8], first compound 3.124 µg/mL, partner 0.156 µg/mL | 0.184

fitness, [7], one replicate
Conditions | first compound 1.562 µg/mL | first compound 3.124 µg/mL | first compound 6.248 µg/mL
partner 0.125 µg/mL | 0.833 | 0.771 | 0.576
partner 0.25 µg/mL | 0.819 | 0.662 | 0.537
partner 0.5 µg/mL | 0.753 | 0.683 | 0.568

C[C@@H]1O[C@@H]1P(=O)(O)O [Fosfomycin] + CN[C@@H]1[C@H](O[C@H]2[C@H](O[C@H]3[C@H](O)[C@@H](O)[C@H](N=C(N)N)[C@@H](O)[C@@H]3N=C(N)N)O[C@@H](C)[C@]2(O)C=O)O[C@@H](CO)[C@H](O)[C@H]1O [Streptomycin]
Conditions | Bliss interaction score
[1] | -0.0437
[2] | -0.14
[3] | -0.187
[4] | -0.106

fitness
Conditions | partner 1 µg/mL | partner 2 µg/mL | partner 4 µg/mL | partner 8 µg/mL
[5], first compound 1.25 µg/mL | – | 0.919 | 0.921 | 0.902
[5], first compound 2.5 µg/mL | – | 0.903 | 0.9 | 0.918
[5], first compound 5 µg/mL | – | 0.715 | 0.747 | 0.722
[7], first compound 1.562 µg/mL | – | 0.664 | – | –
[7], first compound 3.124 µg/mL | – | 0.399 | – | –
[8], first compound 0.781 µg/mL | 0.599 | 0.565 | – | –
[8], first compound 1.562 µg/mL | 0.517 | 0.467 | – | –
[8], first compound 3.124 µg/mL | 0.156 | 0.131 | 0.0427 | –

[5], partner 16 µg/mL, one replicate
Conditions | fitness
first compound 1.25 µg/mL | 0.765
first compound 2.5 µg/mL | 0.714
first compound 5 µg/mL | 0.436
